Among the data in patent publication US20070117770A1, “Human ribosomal DNA (rDNA) and ribosomal RNA (rRNA) nucleic acids and uses thereof” (Cylene Pharmaceuticals, Inc., priority 2005, published 2007) are remaining activity values, retold here.

What all share (assay): Protein kinase inhibition assay
Holding throughout (type): biochemical

The target in one assay is Aurora-A(h) (Homo sapiens, UniProt O14965). The settings on record: read-out: percent residual activity of Aurora-A(h). The protocol: (§1) Certain compounds were tested for activity in protein kinase inhibition assays. All substrates were dissolved and diluted to working stocks in de-ionized water, apart from histone H1 (10× working stock in 20 mM MOPS pH 7.0), PDKtide (10× working stock in 50 mM Tris pH 7.0) ATF2 (which is typically stored at a 20× working stock in 50 mM Tris pH 7.5, 150 mM NaCl, 0.1 mM EGTA, 0.03% Brij-35, 50% glycerol, 1 mM benzamidine, 0.2 mM PMSF and 0.1% R-mercaptoethanol), KKLNRTLSFAEPG (SEQ ID NO:203) and RRRLSFAEPG (SEQ ID NO:204) (50 mM HEPES pH 7.4) and GGEEEEYFELVKKKK (SEQ ID NO:205) (20 mM MOPS pH 7.0). All kinases were pre-diluted to a 10× working concentration prior to addition into the assay. The composition of the dilution buffer for each kinase is detailed below.
In a final reaction volume of 25 μl, Aurora-A (h) (5-10 mU) is incubated with 8 mM MOPS pH 7.0, 0.2 mM EDTA, 200 μM LRRASLG (SEQ ID NO:209) (Kemptide), 10 mM MgAcetate and [gamma-33P-ATP] (specific activity approx. 500 cpm/pmol, concentration as required). The reaction is initiated by the addition of the MgATP mix. After incubation for 40 minutes at room temperature, the reaction is stopped by the addition of 5 μl of a 3% phosphoric acid solution. […]

The target in the next assay is PRK2(h) (Homo sapiens, UniProt Q16513). The settings on record: read-out: percent residual activity of PRK2(h). The protocol: as §1
In a final reaction volume of 25 μl, PRK2 (h) (5-10 mU) is incubated with 50 mM Tris pH 7.5, 0.1 mM EGTA, 0.1% R-mercaptoethanol, 30 μM AKRRRLSSLRA (SEQ ID NO:226), 10 mM MgAcetate and [gamma-33P-ATP] (specific activity approx. 500 cpm/pmol, concentration as required). The reaction is initiated by the addition of the MgATP mix. After incubation for 40 minutes at room temperature, the reaction is stopped by the addition of 5 μl of a 3% phosphoric acid solution. […]

The target in another assay is NEK6(h) (Homo sapiens, UniProt Q9HC98). To be noted: read-out: percent residual activity of NEK6(h). The protocol: as §1
(§2) In a final reaction volume of 25 μl, NEK6 (h) (5-10 mU) is incubated with 8 mM MOPS pH 7.0, 0.2 mM EDTA, 300 μM FLAKSFGSPNRAYKK (SEQ ID NO:221), 10 mM MgAcetate and [gamma-33P-ATP] (specific activity approx. 500 cpm/pmol, concentration as required). The reaction is initiated by the addition of the MgATP mix. After incubation for 40 minutes at room temperature, the reaction is stopped by the addition of 5 μl of a 3% phosphoric acid solution. 10 μl of the reaction is then spotted onto a P30 filtermat and washed three times for 5 minutes in 75 mM phosphoric acid and once in methanol prior to drying and scintillation counting.

Another assay deals with JNK2α2(h) (Homo sapiens, UniProt P45984). To be noted: read-out: percent residual activity of JNK2α2(h). The protocol: as §1
as §2, with “JNK2α2” for “NEK6”, “50” for “8”, “Tris” for “MOPS”, “7.5, […], 0.1% R-mercaptoethanol, 3” for “7.0, 0.2 mM EDTA, 300”, “ATF2,” for “FLAKSFGSPNRAYKK (SEQ ID NO:221),”

In a further assay the target is CDK2/cyclinE(h) (Homo sapiens, UniProt P24941). The settings on record: read-out: percent residual activity of CDK2/cyclinE(h). The protocol: as §1
as §2, with “CDK2/cyclinE” for “NEK6”, “0.1 mg/ml histone H1,” for “300 μM FLAKSFGSPNRAYKK (SEQ ID NO:221),”

Another assay concerns the target EphB4(h) (Homo sapiens, UniProt P54760). To be noted: read-out: percent residual activity of EphB4(h). The protocol:
as §1
as §2, with “EphB4” for “NEK6”, “10 mM MnCl2, 0.1 mg/ml poly(Glu, Tyr) 4:1,” for “300 μM FLAKSFGSPNRAYKK (SEQ ID NO:221),”, “Filtermat A” for “P30 filtermat”

Sequence of PRK2(h) (Q16513 whole entry): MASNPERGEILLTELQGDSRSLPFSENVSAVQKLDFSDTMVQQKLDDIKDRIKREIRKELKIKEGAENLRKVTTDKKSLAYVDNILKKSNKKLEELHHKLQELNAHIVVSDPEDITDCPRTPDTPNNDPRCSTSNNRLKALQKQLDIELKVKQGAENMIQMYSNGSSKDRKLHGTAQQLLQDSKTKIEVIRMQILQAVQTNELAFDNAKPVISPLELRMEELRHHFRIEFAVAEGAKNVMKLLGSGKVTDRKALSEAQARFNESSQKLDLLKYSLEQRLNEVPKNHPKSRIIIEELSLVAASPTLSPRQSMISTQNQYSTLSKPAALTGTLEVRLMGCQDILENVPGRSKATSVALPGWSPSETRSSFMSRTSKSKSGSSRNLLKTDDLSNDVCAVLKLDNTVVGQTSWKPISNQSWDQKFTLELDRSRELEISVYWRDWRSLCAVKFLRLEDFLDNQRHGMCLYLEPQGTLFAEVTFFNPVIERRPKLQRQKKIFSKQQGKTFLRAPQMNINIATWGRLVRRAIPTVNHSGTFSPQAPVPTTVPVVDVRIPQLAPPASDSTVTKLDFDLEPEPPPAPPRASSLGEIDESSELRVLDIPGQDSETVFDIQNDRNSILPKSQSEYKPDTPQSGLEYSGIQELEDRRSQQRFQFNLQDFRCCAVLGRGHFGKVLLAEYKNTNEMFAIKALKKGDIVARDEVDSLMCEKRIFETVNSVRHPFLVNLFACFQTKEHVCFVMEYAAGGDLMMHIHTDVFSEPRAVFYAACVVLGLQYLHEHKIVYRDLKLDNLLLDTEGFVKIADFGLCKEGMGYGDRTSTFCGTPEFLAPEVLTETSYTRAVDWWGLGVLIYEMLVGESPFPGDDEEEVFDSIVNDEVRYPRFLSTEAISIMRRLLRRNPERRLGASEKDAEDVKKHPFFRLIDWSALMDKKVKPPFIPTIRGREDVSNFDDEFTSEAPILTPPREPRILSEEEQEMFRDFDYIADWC
Sequence of EphB4(h) (P54760 16-987): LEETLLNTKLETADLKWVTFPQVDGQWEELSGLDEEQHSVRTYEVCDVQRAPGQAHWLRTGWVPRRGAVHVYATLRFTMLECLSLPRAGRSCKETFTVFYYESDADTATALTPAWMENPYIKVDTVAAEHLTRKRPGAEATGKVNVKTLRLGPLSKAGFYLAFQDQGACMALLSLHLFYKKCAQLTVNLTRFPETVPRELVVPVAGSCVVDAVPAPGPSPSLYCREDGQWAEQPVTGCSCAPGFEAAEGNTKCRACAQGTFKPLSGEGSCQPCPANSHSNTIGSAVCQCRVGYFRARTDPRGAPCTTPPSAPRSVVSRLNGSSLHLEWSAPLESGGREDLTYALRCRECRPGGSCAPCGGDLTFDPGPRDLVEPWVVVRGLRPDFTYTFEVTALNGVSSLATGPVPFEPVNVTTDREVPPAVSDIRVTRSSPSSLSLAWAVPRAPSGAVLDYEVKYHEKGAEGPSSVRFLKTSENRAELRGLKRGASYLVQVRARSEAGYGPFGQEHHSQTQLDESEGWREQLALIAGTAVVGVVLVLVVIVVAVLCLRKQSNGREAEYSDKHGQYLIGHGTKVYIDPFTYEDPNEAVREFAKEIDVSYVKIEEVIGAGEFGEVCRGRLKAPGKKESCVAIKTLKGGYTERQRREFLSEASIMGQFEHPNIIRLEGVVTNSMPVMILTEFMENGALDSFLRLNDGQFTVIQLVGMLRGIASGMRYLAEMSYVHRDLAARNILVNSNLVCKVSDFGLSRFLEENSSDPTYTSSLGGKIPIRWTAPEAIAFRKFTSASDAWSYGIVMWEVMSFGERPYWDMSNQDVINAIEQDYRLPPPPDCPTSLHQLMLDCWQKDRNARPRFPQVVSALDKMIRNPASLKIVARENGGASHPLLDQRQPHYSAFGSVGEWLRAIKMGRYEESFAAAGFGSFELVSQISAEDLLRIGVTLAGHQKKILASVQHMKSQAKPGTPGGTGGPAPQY
Sequence of JNK2α2(h) (P45984 whole entry): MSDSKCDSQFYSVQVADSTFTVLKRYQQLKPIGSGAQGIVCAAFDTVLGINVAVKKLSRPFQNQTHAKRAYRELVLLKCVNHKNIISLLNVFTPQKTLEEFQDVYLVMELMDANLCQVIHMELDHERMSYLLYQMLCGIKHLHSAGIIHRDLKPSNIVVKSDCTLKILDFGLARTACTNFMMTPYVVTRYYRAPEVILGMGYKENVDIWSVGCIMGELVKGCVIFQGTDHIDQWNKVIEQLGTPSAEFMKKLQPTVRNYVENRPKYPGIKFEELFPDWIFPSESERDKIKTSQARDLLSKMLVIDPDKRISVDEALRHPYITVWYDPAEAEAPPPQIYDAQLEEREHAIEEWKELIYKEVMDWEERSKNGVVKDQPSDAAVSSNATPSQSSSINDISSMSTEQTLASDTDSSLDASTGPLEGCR
Sequence of Aurora-A(h) (O14965 whole entry): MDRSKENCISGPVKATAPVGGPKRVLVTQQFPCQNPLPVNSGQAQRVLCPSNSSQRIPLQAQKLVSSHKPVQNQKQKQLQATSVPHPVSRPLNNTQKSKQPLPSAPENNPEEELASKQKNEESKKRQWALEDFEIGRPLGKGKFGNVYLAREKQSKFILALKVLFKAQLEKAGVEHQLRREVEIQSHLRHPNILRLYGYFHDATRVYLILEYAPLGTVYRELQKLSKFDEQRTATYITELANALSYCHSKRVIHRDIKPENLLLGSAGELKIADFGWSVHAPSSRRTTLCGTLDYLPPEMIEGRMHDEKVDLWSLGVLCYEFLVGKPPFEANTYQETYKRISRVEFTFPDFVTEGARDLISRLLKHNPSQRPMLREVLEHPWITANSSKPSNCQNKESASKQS
Sequence of NEK6(h) (Q9HC98 whole entry): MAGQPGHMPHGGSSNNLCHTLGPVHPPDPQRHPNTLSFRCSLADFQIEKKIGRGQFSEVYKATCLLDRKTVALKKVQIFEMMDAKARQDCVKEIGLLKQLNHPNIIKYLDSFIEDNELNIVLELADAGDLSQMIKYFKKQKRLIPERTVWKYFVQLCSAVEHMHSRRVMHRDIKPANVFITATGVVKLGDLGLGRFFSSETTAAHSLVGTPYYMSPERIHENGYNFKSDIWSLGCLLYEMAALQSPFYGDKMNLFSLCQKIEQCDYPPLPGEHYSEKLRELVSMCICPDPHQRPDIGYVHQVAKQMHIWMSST

As for `CN1CCCC1CCNC(=O)c1cn2c3c(c(N4CCC(c5cnccn5)C4)c(F)cc3c1=O)Oc1cc3ccccc3cc1-2` (stereo not drawn) [Compound A-1], the remaining activity at 2.5 µM at Aurora-A(h) was found to be 43%; at PRK2(h), 36%; on NEK6(h) it was 78%; on JNK2α2(h) it was 101%; at CDK2/cyclinE(h) it was 102%; on EphB4(h) it was 96%.

Consider `CC(=O)N1CCN(c2ccc3c(=O)c(C(=O)NCCN4CCCC4)c4n(C)c5ccccc5n4c3n2)CC1` [Compound B-1], for which the remaining activity at 2.5 µM is 104% on Aurora-A(h); 110% on PRK2(h); 111% on NEK6(h); 106% on JNK2α2(h); 117% at CDK2/cyclinE(h); 108% at EphB4(h).
